Laboratory results published in patent publication US11161819B2, “Substituted tetrahydroisoquinoline compounds useful as GPR120 agonists” (Merck Sharp & Dohme Corp., priority 2016, dated 2021).

Target: T1, human GPR120 (Homo sapiens, UniProt Q5NUL3)
T1 construct: expressed in transfected cells
T1 sequence (Q5NUL3 1-361): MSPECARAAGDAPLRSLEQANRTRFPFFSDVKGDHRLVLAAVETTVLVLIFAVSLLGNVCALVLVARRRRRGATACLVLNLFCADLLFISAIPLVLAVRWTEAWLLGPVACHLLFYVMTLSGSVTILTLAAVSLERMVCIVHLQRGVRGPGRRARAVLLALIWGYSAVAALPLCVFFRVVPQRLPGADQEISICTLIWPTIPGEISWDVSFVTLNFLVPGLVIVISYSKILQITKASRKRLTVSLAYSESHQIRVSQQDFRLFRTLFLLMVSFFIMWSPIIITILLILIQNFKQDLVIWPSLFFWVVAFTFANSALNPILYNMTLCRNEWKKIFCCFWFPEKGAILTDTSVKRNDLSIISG
Test: Human GPR120 IP1 Assay (inositol phosphate turnover, CisBio IP-One kit)
Type: cell-based
Settings: IP1 accumulation in CHO-K1 cells stably expressing the short form of human GPR120; 60 min compound incubation; 4-parameter fit; read-out: hGPR120 EC50
Text: Human GPR120 IP1 Assay Principle
The binding of small molecule agonists to the G-protein-coupled receptor GPR120 activates phospholipase C, and leads to the generation of inositol 1,4,5-trisphosphate (InsP3 or IP3). IP3 is subsequently de-phosphorylated to IP1, which accumulates in cells and is stable in the presence of lithium chloride.
In the present method, agonist-induced activation of the human GPR120 receptor was monitored by measuring the accumulation of IP1 in CHO-K1 cells that were stably expressing the short form of human GPR120 (Accession #NM_001195755). Following agonist addition, GPR120 activation and subsequent accumulation of IP1 was measured using a homogeneous Time Resolved Fluorescence-based ELISA commercially available from CisBio (IP-one ELISA Kit). The IP-One ELISA was a competitive immunoassay which uses IP1 labeled with […] and a terbium cryptate-labeled anti-IP1 monoclonal antibody. […] The signal loss was then back calculated to IP1 concentration using an IP1 standard curve. Determination of IP1 concentration was a direct measure of GPR120 activation and was used to determine compound potency (EC50).
Generation of GPR120-Expressing Cells:
Human GPR120 stable cell-lines were generated in CHO cells. The expression plasmids were transfected using lipofectamine (Life Technologies) following manufacturer's instructions. Stable cell-lines were generated following drug selection and single cell cloning.
Inositol Phosphate Turnover (IP1) Assay:
The assay was performed in 384-well format. CHO cells stably expressing human GPR120 were plated at […] per well in growth medium (DMEM/F12, 10% fetal calf serum). Cell plates were then incubated 16 hours at 37 degrees in a 5% CO2 incubator. Measurement of Inositol Phosphate Turnover (IP1) was performed using the CisBio IP-One kit (Part number 62IPAPEB). After the 16 hour incubation, the growth media was removed by centrifugation using the BlueWasher (AusWasher GUI Ver. v1.0.1.8) Protocol #21-“Light Dry” and 10 ul of stimulation buffer (prepared as described in the kit) was added to each well. In a separate plate, compounds were diluted in DMSO (200-fold over the final concentration in the assay well) and 50 nl was acoustically transferred to the appropriate well in the assay cell plate. The plates were then incubated for 60 minutes at 37 degrees in a 5% CO2 incubator. 10 ul of detection buffer (also prepared as described in the IP-One kit) was added to each well and the plates were incubated at room temperature for 60 minutes in the dark. The plates were then read in a Perkin Elmer EnVision or equivalent reader able to measure FRET. Fluorescent ratio of emission at 665 and 620 nm was then converted to the IP1 concentration by back calculating from an IP1 standard curve prepared at the time of the assay. The data was normalized to % activity using a reference compound, and the EC50 values were determined using a standard 4-parameter fit.

| Structure (SMILES) | EC50 [nM] |
| --- | --- |
| O=C(O)CCc1ccc2c(c1F)CCN(c1cc(OC3CCC3)ccc1F)C2 [Example 81, 3-{2-[5-(cyclobutyloxy)-2-fluoro-phenyl]-5-fluoro-1,2,3,4-tetrahydro-isoquinolin-6-yl}propanoic acid] | 48 |
| O=C(O)CCc1ccc2c(c1)CCN(c1nc(OC3CCC3)ccc1F)C2 [Example 5, 3-(2-(6-cyclobutoxy-3-fluoropyridin-2-yl)-1,2,3,4-tetrahydro-isoquinolin-6-yl)-propanoic acid] | 65 |
| O=C(O)[C@H]1C[C@@H]1c1ccc2c(c1F)CCN(c1cc(OC3CCC3)cc(Cl)c1F)C2 [Example 125, (1S,2S)-2-{2-[3-chloro-5-(cyclobutyloxy)-2-fluorophenyl]-5-fluoro-1,2,3,4-tetrahydroisoquinolin-6-yl}cyclopropane-carboxylic acid] | 414 |
| CO[C@H]1C[C@H](Oc2ccc(C#N)c(N3CCc4cc(CCC(=O)O)ccc4C3)c2)C1 [Example 48, 3-(2-{2-cyano-5-[(trans-3-methoxy-cyclobutyl)oxy]phenyl}-1,2,3,4-tetrahydroisoquinolin-6-yl)-propanoic acid] | 596 |
| O=C(O)CCc1ccc2c(c1F)CCN(c1c(-c3ccc(Cl)cc3)nsc1C(F)(F)F)C2 [Example 59, 3-(2-(3-(4-chlorophenyl)-5-(trifluoromethyl)isothiazol-4-yl)-5-fluoro-1,2,3,4-tetrahydroisoquinolin-6-yl)propanoic acid] | 1630 |
| CO[C@H]1C[C@H](Oc2cc(F)c(F)c(N3CCc4c(ccc([C@@H]5C[C@H]5C(=O)O)c4F)C3)c2)C1 [Example 110, (1R,2R)-2-(2-{2,3-difluoro-5-[(trans-3-methoxycyclobutyl)oxy]phenyl}-5-fluoro-1,2,3,4-tetrahydroisoquinolin-6-yl)-cyclopropanecarboxylic acid] | 42 |
| Cc1nc(OC2CCC2)nc(N2CCc3c(ccc(CCC(=O)O)c3F)C2)c1C#N [Example 152, 3-{2-[5-cyano-2-(cyclobutyloxy)-6-methylpyrimidin-4-yl]-5-fluoro-1,2,3,4-tetrahydroisoquino-lin-6-yl}propanoic acid] | 69 |
| C[C@H]1C[C@H](Oc2cc(F)c(F)c(N3CCc4c(ccc([C@H]5C[C@@H]5C(=O)O)c4F)C3)c2)C1 [Example 108, (1S,2S)-2-(2-(2,3-difluoro-5-((1r,3S)-3-methylcyclobutoxy)phenyl)-5-fluoro-1,2,3,4-tetra-hydroisoquinolin-6-yl)cyclopropanecarboxylic acid] | 122 |
| CO[C@H]1C[C@H](Oc2cc(F)c(F)c(N3CCc4cc([C@H]5C[C@@H]5C(=O)O)ccc4C3)c2)C1 [Example 100, (1S,2S)-2-(2-{2,3-difluoro-5-[(trans-3-methoxycyclobutyl)oxy]phenyl}-1,2,3,4-tetrahydroiso-quinolin-6-yl)-cyclopropanecarboxylic acid] | 251 |
| Cc1ccc(-n2nc(C)c(Cl)c2N2CCc3cc(CCC(=O)O)ccc3C2)cc1 [Example 22, 3-{2-[4-chloro-3-methyl-1-(4-methylphenyl)-1H-pyrazol-5-yl]-1,2,3,4-tetrahydroisoquinolin-6-yl} propanoic acid] | 56 |
| CC1c2ccc(CCC(=O)O)cc2CCN1c1cc(OC2CCC2)ccc1F (stereo not shown) [Example 39, 3-{2-[5-(cyclobutyloxy)-2-fluorophenyl]-1-methyl-1,2,3,4-tetra-hydroisoquinolin-6-yl}propanoic acid] | 417 |
| O=C(O)C1CC1c1ccc2c(c1)CCN(c1cc(OC(F)(F)F)cc(Cl)c1F)C2 (stereo not shown) [Example 104, 2-{2-[3-chloro-2-fluoro-5-(trifluoro-methoxy)phenyl]-1,2,3,4-tetra-hydroisoquinolin-6-yl}cyclo-propane-carboxylic acid] | 4040 |

Continued, values first:

| EC50 [nM] | Structure (SMILES) |
| --- | --- |
| 472 | Cc1cc2c(c(F)c1CCC(=O)O)CCN(c1cc(OC(F)(F)F)ccc1F)C2 [Example 58, 3-(5-fluoro-2-(2-fluoro-5-(trifluoromethoxy)phenyl)-7-methyl-1,2,3,4-tetra-hydroisoquinolin-6-yl)propanoic acid] |
| 15 | O=C(O)CCc1ccc2c(c1)CCN(c1cc(OC3CCC3)cc(F)c1F)C2 [Example 11, 3-{2-[5-(cyclobutyloxy)-2,3-difluorophenyl]-1,2,3,4-tetrahydro-isoquinolin-6-yl}propanoic acid] |
| 62 | O=C(O)CCc1ccc2c(c1)CCN(c1cc(OC(F)(F)F)cc(Cl)c1Cl)C2 [Example 156, 3-{2-[2,3-dichloro-5-(trifluoro-methoxy)phenyl]-1,2,3,4-tetra-hydroisoquinolin-6-yl}propanoic acid] |
| 9740 | N#Cc1c(F)cc(OC2CCC2)cc1N1CCc2c(ccc([C@H]3C[C@@H]3C(=O)O)c2F)C1 [Example 126, (1S,2S)-2-{2-[2-cyano-5-(cyclo-butyloxy)-3-fluorophenyl]-5-fluoro-1,2,3,4-tetrahydroiso-quinolin-6-yl}cyclopropane-carboxylic acid] |
| 1470 | COc1ccc(-n2nc(C)c(C#N)c2N2CCc3cc(CCC(=O)O)ccc3C2)cc1 [Example 43, 3-{2-[4-cyano-1-(4-methoxy-phenyl)-3-methyl-1H-pyrazol-5-yl]-1,2,3,4-tetrahydroisoquinolin-6-yl}propanoic acid] |
| 25 | N#Cc1c(F)cc(OC2CCC2)cc1N1CCc2cc(CCC(=O)O)ccc2C1 [Example 55, 3-{2-[2-cyano-5-(cyclobutyloxy)-3-fluorophenyl]-1,2,3,4-tetrahydro-isoquinolin-6-yl}propanoic acid] |
| 491 | Cc1nn(-c2ccc(F)cc2)c(N2CCc3cc(C4CC4C(=O)O)ccc3C2)c1F (stereo not shown) [Example 95, 2-{2-[4-fluoro-1-(4-fluorophenyl)-3-methyl-1H-pyrazol-5-yl]-1,2,3,4-tetrahydroisoquinolin-6-yl} cyclo-propanecarboxylic acid] |
| 87 | Cc1ccc(-n2nc(C)c(C#N)c2N2CCc3cc(OCCO)ccc3C2)cc1 [Example 130, 5-(6-(2-hydroxyethoxy)-3,4-dihydroisoquinolin-2(1H)-yl)-3-methyl-1-(p-tolyl)-1H-pyrazole-4-carbonitrile] |
| 288 | COc1ccc(-n2nc(C)c(C#N)c2N2CCc3ccccc3C2)cc1 [Example 141, 5-(3,4-dihydroisoquinolin-2(1H)-yl)-1-(4-methoxyphenyl)-3-methyl-1H-pyrazole-4-carbonitrile] |
| 18 | COc1cc(OC(F)(F)F)cc(N2CCc3cc(CCC(=O)O)ccc3C2)c1F [Example 13, 3-{2-[2-fluoro-3-methoxy-5-(trifluoromethoxy)phenyl]-1,2,3,4-tetrahydroisoquinolin-6-yl}-propanoic acid] |
| 192 | O=C(O)CCc1ccc2c(c1)CCN(c1cc(Oc3cnccn3)ccc1F)C2 [Example 33, 3-{2-[2-fluoro-5-(pyrazin-2-yloxy)phenyl]-1,2,3,4-tetrahydroiso-quinolin-6-yl}propanoic acid] |
| 107 | N#Cc1cc(OC(F)(F)F)cc(N2CCc3c(ccc([C@H]4C[C@@H]4C(=O)O)c3F)C2)c1F [Example 116, (1S,2S)-2-{2-[3-cyano-2-fluoro-5-(trifluoromethoxy)phenyl]-5-fluoro-1,2,3,4-tetrahydroiso-quinolin-6-yl}cyclopropane-carboxylic acid] |
| 73 | O=C(O)[C@@H]1C[C@H]1c1ccc2c(c1F)CCN(c1cc(OC(F)(F)F)cc(F)c1Cl)C2 [Example 121, (1R,2R)-2-{2-[2-chloro-3-fluoro-5-(trifluoromethoxy)phenyl]-5-fluoro-1,2,3,4-tetra-hydroisoquinolin-6-yl}cyclo-propanecarboxylic acid] |
